Test results reported in patent US20030008335A1, “Biosensor for drug candidates” (priority 2001, published 2003).
pEC50: −log10 of the molar value. Where two headings read alike, the source gives them in different places.

Experiments:
[1] = tested on: bovine aortic endothelial cells (ECs); conditions: 3 ng/ml, over 3 days following administration; cited from earlier work
[2] = tested on: bovine aortic endothelial cells (ECs); assay: EC QCM biosensor: Δf and ΔR shifts of attached endothelial cells after drug addition; type: cell-based; conditions: for pEC50: Bos taurus, Endothelial cell
Excerpt: The details of how these measurements were made have been presented previously. Basically, an AT cut quartz crystal of resonant frequency 8.85 MHz with gold electrode (5 mm diameter)was used in a cylindrical Teflon cell (Seiko EG&G). The crystal was sandwiched between two silicone O-rings to allow only one side of the electrode to be exposed to the media and serum containing solution (FIG. 1B). The QCM device was placed within a large petri dish, filled with distilled water, at a level well […] the water surface. This water reservoir allowed humidity to be maintained, preventing evaporation from the QCM cell. The QCM was covered with a petri dish cover plate following placement inside a 37° C. temperature regulated cell incubator. A Model QCA 917 Quartz Crystal Analyzer System (Seiko EG&G), comprised of a Main Unit and Oscillator, was used for the simultaneous measurement of the resonant frequency (f) and resonance admittance (A). Before assembly in the well holder, the gold QCM surface was treated chemically to render it hydrophilic. A drop of 1:3 H2O2 (30%): H2SO4 at 80° C. was placed upon and covered the gold surface for 5 minutes, followed by rinsing with distilled water and drying under N2. This procedure was repeated three times. After sterilization and washing with water and PBS, 52 μl of media and 10% Calf Serum (CS) was added onto the QCM electrode and the entire holder was put into a humidified CO2 incubator controlled at 10% CO2. The f and admittance (A) values were automatically monitored at 1 minute intervals using a PC and WinWedge 32, version 3.0 Software (TAL Technologies®) and the stable values at 2 hour were taken as reference values before the addition of cells. After 2 hours, 250 μl media +10% CS containing a specific number of cells was added evenly to the medium surface. Then f and A values were automatically monitored during the process of EC sedimentation to the crystal surface, and during their impact and spreading over a 20 hr period to achieve steady state attachment. In the data reduction phase, values of A, in μS were converted into motional resistance, R, in units of Ω, using the relationship R=10^6/A. Nocodazole achieved its final concentration by being added in a pre-warned 50 μl volume of media and serum, following removal of 50 μl from the top of the EC QCM biosensor well holder. Following the conclusion of each experiment, trypsinable ECs adhering to the gold QCM surface were determined as described below. Bovine aortic endothelial cells (BAEs) were obtained from Clonetics, Inc., and were maintained as stock cultures in DMEM-10% CS, as previously described. BAEs were not used beyond passage 22. For experimental treatments, ECs were trypsinized, washed with PBS, and precise counts of the number of cells were made using an electronic cell counter made by Coulter, Inc., following resuspension in full media (250 μl). At the end of a QCM experiment, cells firmly attached were determined via trypsinization assay and an electronic counter. This protocol involved the following steps. Media was collected from the QCM (M). The QCM was gently washed with 100 μl PBS (W). After 125 μl trypsin (0.05% w/v trypsin, 0.53 mM EDTA, in Hank's Buffered salt solution) was added and incubated for 6 min. at 37° C., this fraction was collected (T1). Following a second trypsinization wash, identical to the first, this fraction was collected (T2). Aliquots from all of the four steps (M, W, T1, T2) were electronically counted using Coulter counting. After trypsinization, the QCM electrode was washed successively with PBS, water, ethanol, then detached from the well holder. It was then cleaned sequentially with a number of reagents to remove all residual ECM and cell debris, as we have previously described. Cleaned in this way, the QCM was used repeatedly with good reproducibility of its initial f and R values, due to complete protein removal from the QCM surface.

[3] = tested on: bovine aortic endothelial cells (ECs); assay: Fluorescence light microscopy of actin-stained ECs in multichamber LabTek slides (QCM simulation); type: cell-based; conditions: for EC shape and morphology (actin stain): 4 hr treatment
Protocol: To acquire detailed information about the change in cell shape and attachment while ECs were exposed to varying nocodazole concentrations, we performed a simulation experiment. 76,400 ECs were plated into multichamber LabTek slides and were allowed to attach for 24 hrs in normal growth media. This number of cells simulates the cell surface density in the QCM device. 50 μL of media was then removed and replaced with 50 μL of media with or without concentrated nocodazole. In duplicate, cells either received no nocodazole (control) or final concentrations of 0.33, 1, 2, 6 or 15 μM nocodazole. After four hours, the cells were fixed and stained to reveal the actin microfilament arrangement within the cells, as described below. These studies were performed to detect the shape and attachment changes in ECs that would roughly correspond to a time when the QCM detected maximal shifts in f and R values. […] For actin localization in the multichamber wells or in the QCM device, media was aspirated and replaced with 3.5% formaldehyde. The cells were fixed for 15 mins at room temperature, washed with PBS and then incubated with rhodamine-labeled phalloidin (0.165 μM in PBS) for 30 mins at room temperature. The cells were then washed with PBS and coverslipped with Cytoseal mounting medium (VWR Scientific). The cells were examined using an Olympus BH2 CTD microscope, and the images were digitized using a CCD camera and imported into Photoshop 5.0 of Adobe® and using a Gateways® P11-390 computer.

[4] = tested on: bovine aortic endothelial cells (ECs); assay: Fluorescence light microscopy of actin-stained ECs on the gold QCM crystal surface; type: cell-based; conditions: 15 μM (FIG. 8B), four hours treatment
Protocol: For actin localization in the multichamber wells or in the QCM device, media was aspirated and replaced with 3.5% formaldehyde. The cells were fixed for 15 mins at room temperature, washed with PBS and then incubated with rhodamine-labeled phalloidin (0.165 μM in PBS) for 30 mins at room temperature. The cells were then washed with PBS and coverslipped with Cytoseal mounting medium (VWR Scientific). The cells were examined using an Olympus BH2 CTD microscope, and the images were digitized using a CCD camera and imported into Photoshop 5.0 of Adobe® and using a Gateways® P11-390 computer. Actin localization within cells grown and or treated with nocodazole in the QCM. We wished to examine the ECs directly attached to the QCM surface with and without nocodazole treatment. Since the […] needed to be chemically fixed on the surface, we needed to sacrifice crystals for this purpose. Two different crystals were used. The first crystal was used to visualize ECs growing on the gold QCM surface at the steady state condition. At the conclusion of the QCM measurement, cells on the crystals were stained to localize actin microfilaments. In the first experiment, ECs were added to the crystal and were allowed to attach for 24 hrs to achieve their normal characteristic Δf and ΔR shifts. […]

[5] = 15 μM, ECs beginning to detach from crystal surface
[6] = fluorescence light microscope observations

Compound | growth stimulation of ECs on the QCM biosensor [1] | initial maximum increase in ΔR after drug addition ([2]; 2.0 μM final concentration, 20,000 ECs added, steady state biosensor) | Δf drop after drug addition ([2]; 2.0 μM final concentration, over the next 4 hours, 20,000 ECs added, steady state biosensor) [Hz] | Δ(ΔR) value at 15 μM relative to that measured at 6 μM [2, 5] [%] | Δ(Δf) value at 15 μM relative to that measured at 6 μM [2, 5] [%] | pEC50 ([2]; as printed in the conclusion, read-out: PC50 (midpoint value of dose effect curve)) | pEC50 ([2]; dose curves of Δ(Δf) and Δ(ΔR) vs log concentration, 0.11-6 μM, read-out: PC50 (effective change in cellular attachment in 50% of the ECs, transition midpoint of dose curve)) | EC shape and morphology (actin stain) ([3]; 0.33 μM) | EC shape and morphology (actin stain) ([3]; 1 and 2 μM) | EC shape and morphology (actin stain) ([3]; 6 and 15 μM) | concentration at which changes in EC intercellular contacts and progressive cell rounding begin [3, 6] | concentration by which changes in EC intercellular contacts and cell rounding saturate [3, 6] [µM] | EC shape and morphology on QCM crystal (actin stain) [4]
Fibroblast Growth Factor | stimulated the ECs to divide | – | – | – | – | – | – | – | – | – | – | – | –
COC(=O)Nc1nc2ccc(C(=O)c3cccs3)cc2[nH]1 [nocodazole] | – | 14 Ω | 360 | 50 | 50 | 6.05 | ~6.05 | smaller than control cells | the monolayer became disrupted | significantly reduced cellular area | around 330 nM | ≤ 6 | lost cell-cell contact
